# Measurements taken from ChEMBL document CHEMBL5303304, “EUbOPEN Chemogenomics Library - IncuCyte” (2023).
# Columns and labels:
# Format in all cases: toxicity, cell-based
# [1] = tested on: HEK-293T; experiment: Incucyte cell viability with HEK293T; settings: human, 10 µM, compound concentration 10 uM
# [2] = tested on: U2OS; experiment: Incucyte cell viability with U2OS; settings: human, 10 µM, compound concentration 10 uM
# [3] = tested on: Fibroblast; experiment: Incucyte cell viability with human fibroblast; settings: 10 µM, compound concentration 10 uM
# Note: unitless GR value; below 1 slowed growth and below 0 cell loss.
Compound,"Growth Rate ([1]; 0 h, replicate number 1)","Growth Rate ([1]; 0 h, replicate number 2)","Growth Rate ([1]; 6 h, replicate number 1)","Growth Rate ([2]; 0 h, replicate number 2)","Growth Rate ([2]; 6 h, replicate number 2)","Growth Rate ([2]; 12 h, replicate number 1)","Growth Rate ([2]; 12 h, replicate number 2)","Growth Rate ([2]; 18 h, replicate number 2)","Growth Rate ([2]; 24 h, replicate number 1)","Growth Rate ([2]; 24 h, replicate number 2)","Growth Rate ([3]; 0 h, replicate number 1)","Growth Rate ([3]; 0 h, replicate number 2)","Growth Rate ([3]; 6 h, replicate number 1)","Growth Rate ([3]; 12 h, replicate number 1)","Growth Rate ([3]; 12 h, replicate number 2)","Growth Rate ([3]; 18 h, replicate number 2)","Growth Rate ([3]; 24 h, replicate number 2)","Growth Rate ([3]; 6 h, replicate number 2)","Growth Rate ([3]; 18 h, replicate number 1)","Growth Rate ([1]; 6 h, replicate number 2)",further results
O=C1NCCc2c(OCCCCN3CCCCC3)cccc21,0.6,0.67,0.81,-0.98,0.34,0.56,0.86,0.88,0.79,0.83,0.29,-0.96,0.19,-0.5,0.64,0.79,0.76,–,–,–,"Growth Rate ([2]; 6 h, replicate number 1): 0.02; Growth Rate ([2]; 18 h, replicate number 1): 0.79"
Clc1cccc(-n2nnnc2NCc2ccccc2Oc2ccccn2)c1Cl,0.73,0.49,–,0.95,0.99,0.9,–,0.96,–,–,0.89,0.26,–,–,0.89,–,–,-0.47,0.74,–,"Growth Rate ([2]; 0 h, replicate number 1): -0.04; Growth Rate ([3]; 24 h, replicate number 1): 0"
CC(C)CNc1nc(N2CCN(CC3CCCOC3)CC2)ncc1C(=O)NCc1ccccc1 (stereo not drawn),0.68,–,0.81,–,0.72,0.83,0.63,0.76,–,0.79,-0.99,–,–,–,-0.95,-0.81,-0.64,-1,-0.97,0.95,"Growth Rate ([2]; 6 h, replicate number 1): 0.3; Growth Rate ([2]; 18 h, replicate number 1): 0.99; Growth Rate ([3]; 24 h, replicate number 1): -0.8"
CCOc1ccccc1C(=O)NCC1(N2CCN(CC)CC2)CCCCC1,0.98,–,0.23,-0.99,0.56,–,0.88,0.86,–,0.94,-0.95,-0.98,–,–,0.93,–,0.83,-0.9,-0.25,-0.02,"Growth Rate ([1]; 12 h, replicate number 1): -0.11; Growth Rate ([1]; 12 h, replicate number 2): 0.31; Growth Rate ([1]; 18 h, replicate number 1): 0.24; Growth Rate ([1]; 18 h, replicate number 2): 0.44; Growth Rate ([1]; 24 h, replicate number 1): 0.44; Growth Rate ([1]; 24 h, replicate number 2): 0.46; Growth Rate ([2]; 0 h, replicate number 1): -0.19; Growth Rate ([3]; 24 h, replicate number 1): 0.45"
O=C(Nc1ccc(S(=O)(=O)Nc2nccs2)cc1)C(c1ccccc1)c1ccccc1,0.71,–,0.94,–,–,0.81,0.82,–,0.94,–,–,-0.85,–,–,0.85,–,–,–,0.49,0.52,"Growth Rate ([1]; 18 h, replicate number 2): 0.82; Growth Rate ([1]; 24 h, replicate number 1): 0.88; Growth Rate ([1]; 24 h, replicate number 2): 0.9"
CCN1CCN(Cc2ccc(Nc3ncc(F)c(-c4cc(F)c5nc(C)n(C(C)C)c5c4)n3)nc2)CC1.CS(=O)(=O)O,-0.17,0.21,–,–,–,–,0.97,0.98,–,1,0.5,–,0.33,-1,0.98,–,–,–,–,0.64,"Growth Rate ([1]; 12 h, replicate number 1): 0.36; Growth Rate ([1]; 12 h, replicate number 2): 0.38; Growth Rate ([1]; 18 h, replicate number 2): 0.6; Growth Rate ([1]; 24 h, replicate number 2): 0.76"
O=S(=O)(Nc1nnc2cc(OCC34CC5CC(CC(C5)C3)C4)c(C3CC3)cn12)C1CC1,0.55,0.41,0.8,–,0.37,0.94,0.76,0.91,0.94,0.89,–,–,0.92,-1,0.16,0.43,0.63,-1,0.51,–,–
